In brackets after ≈: the same amount, converted by molar mass.
Key:
[1] = Hydrophobicity by retention in analytical RP-HPLC (% MeCN at peak elution); assay type: physicochemical; settings: for % MeCN at Elution, Aeris Peptide: Phenomenex Aeris Peptide XB-C18 column; for % MeCN at Elution, Aeris Peptide / % MeCN at Elution, Luna Omega / % MeCN at Elution, Supelco Discovery: gradient 0→60% B during 15 min; for % MeCN at Elution, Luna: Phenomenex Luna C18(2) column, RP-HPLC gradient 0→60% B during 15 min, relative hydrophobicity; for % MeCN at Elution, Luna Omega: Phenomenex Luna Omega Polar C18 column; for % MeCN at Elution, Supelco Discovery: Supelco Discovery BIO Wide pore C18 column
Summary of the method: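 Retention times measured on four C18 columns (Luna C18(2), Luna Omega Polar C18, Aeris Peptide XB-C18, Discovery BIO Wide pore) with MeCN–H2O/0.1% TFA, linear 0–60% B over 15 min, 0.8 mL/min, UV 220 nm. % MeCN at elution = 0.95(0.6Rt/15 min)+0.05(1−0.6Rt/15 min).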

E. coli NMI 3898/15 = assay type: cell-based, Escherichia coli; settings: NMI 3898/15, 20 h
Summary of the method: (§1)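 MIC, broth microdilution; MHB + 4 mg/L Mg^2+/Ca^2+; inoculum ~5 × 10^5 CFU/mL; cpd in 0.01% AcOH/0.2% BSA final; 20 h, 35 °C (±2 °C), 180 rpm shaking.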

E. coli ATCC 25922 = assay type: cell-based, Escherichia coli; settings: ATCC 25922, 20 h
Summary of the method: as §1

E. coli NMI 3371/16 = assay type: cell-based, Escherichia coli; settings: NMI 3371/16, 20 h
Summary of the method: as §1

[2] = Determination of hemolytic activity; assay type: cell-based; settings: red blood cell suspension in PBS buffer, human red blood cells at 400 µg/mL, 37 °C
Summary of the method: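 Fresh human RBCs, PBS-washed, used as 1% suspension with compound at 400 μg/mL final for 60 min at 37 °C with mild agitation, triplicate wells. Released hemoglobin read at OD 405 nm in supernatant; % hemolysis normalized to 1% SDS (100%) and PBS (0%), averages reported.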

S. aureus ATCC 29213 = assay type: cell-based, Staphylococcus aureus; settings: ATCC 29213, 20 h
Summary of the method: as §1

K. pneumoniae ATCC 13883 = assay type: cell-based; settings: ATCC 13883, 20 h
Summary of the method: as §1

E. faecalis ATCC 29212 = assay type: cell-based; settings: ATCC 29212, 20 h
Summary of the method: as §1

Row | % MeCN at Elution, Aeris Peptide [1] [% MeCN] | % MeCN at Elution, Luna [1] [% MeCN] | % MeCN at Elution, Luna Omega [1] [% MeCN] | % MeCN at Elution, Supelco Discovery [1] [% MeCN] | MIC, E. coli NMI 3898/15 (E. coli NMI 3898/15) [µg/mL] | MIC, EC (E. coli ATCC 25922) [µg/mL] | MIC, E. coli NMI 3371/16 (E. coli NMI 3371/16) [µg/mL] | MIC, SA (S. aureus ATCC 29213) [µg/mL] | MIC, KP (K. pneumoniae ATCC 13883) [µg/mL] | MIC, EF (E. faecalis ATCC 29212) [µg/mL] | MIC against E. coli (E. coli ATCC 25922) [µM] | SMILES | hemolysis at 60 min [2] [%]
1 | 39.8 | 41.8 | 42.3 | 42.0 | 16 (≈ 7.59 µM) | 4 (≈ 1.9 µM) | 4 to 8 | >64 | >64 | >64 |  | NCCCC[C@H](NC(=O)CCN(Cc1ccc(F)cc1)C(=O)[C@H](CCCCN)NC(=O)CCN(Cc1ccc(F)cc1)C(=O)[C@H](CCCCN)NC(=O)CCOCCOCCOCCOCCNC(=O)CCN(Cc1ccc(F)cc1)C(=O)[C@H](CCCCN)NC(=O)CCN(Cc1ccc(F)cc1)C(=O)[C@H](CCCCN)NC(=O)CCN(Cc1ccc(F)cc1)C(=O)[C@@H](N)CCCCN)C(=O)N(CCC(N)=O)Cc1ccc(F)cc1 [Compound 9, H-[X]3-sPEG4-[X]3-NH2] | 7.1
2 | 39.4 | 41.5 | 41.9 | 41.6 | 8 (≈ 3.72 µM) | 2 to 4 | 4 (≈ 1.86 µM) | 32 to 64 | 64 (≈ 29.7 µM) | >64 | 0.7 to 1.4 | NCCCC[C@H](NC(=O)CCN(Cc1ccc(F)cc1)C(=O)[C@H](CCCCN)NC(=O)COCCOCCNC(=O)CCN(Cc1ccc(F)cc1)C(=O)[C@H](CCCCN)NC(=O)CCN(Cc1ccc(F)cc1)C(=O)[C@H](CCCCN)NC(=O)COCCOCCNC(=O)CCN(Cc1ccc(F)cc1)C(=O)[C@H](CCCCN)NC(=O)CCN(Cc1ccc(F)cc1)C(=O)[C@@H](N)CCCCN)C(=O)N(CCC(N)=O)Cc1ccc(F)cc1 [Compound 16, H-[X]2-sPEG2-[X]2-sPEG2-[X]2-NH2] | 5.7
3 | 40.4 | 42.4 | 43.5 | 42.5 | 32 (≈ 12.3 µM) | 16 (≈ 6.15 µM) | 16 (≈ 6.15 µM) | >64 | >64 | >64 |  | NCCCC[C@H](NC(=O)CCN(Cc1ccc(F)cc1)C(=O)[C@H](CCCCN)NC(=O)CCN(Cc1ccc(F)cc1)C(=O)[C@H](CCCCN)NC(=O)CCOCCOCCOCCOCCN)C(=O)N(CCC(=O)NCCOCCOCCOCCOCCC(=O)N[C@@H](CCCCN)C(=O)N(CCC(=O)N[C@@H](CCCCN)C(=O)N(CCC(=O)N[C@@H](CCCCN)C(=O)N(CCC(=O)NCCOCCOCCOCCOCCC(N)=O)Cc1ccc(F)cc1)Cc1ccc(F)cc1)Cc1ccc(F)cc1)Cc1ccc(F)cc1 [Compound 14, H-sPEG4-[X]3-sPEG4-[X]3-sPEG4-NH2] | 9

From paper PMC8268887, “Peptide/β-Peptoid Hybrids with Ultrashort PEG-Like Moieties: Effects on Hydrophobicity, Antibacterial Activity and Hemolytic Properties” (International Journal of Molecular Sciences, 2021)
